From US20080051418A1, “Arylalkanoic Acid Derivative” (priority 2004, published 2008) come the findings set out here.

Broadly, the melting point is the temperature, or range, at which the solid turns liquid. Molecule `CC(C)Oc1cc(CCCOc2cc(CCC(=O)O)n(Cc3ccccc3)n2)n(Cc2ccc(Cl)cc2Cl)n1` [Example 191, 3-(1-benzyl-3-{3-[1-(2,4-dichlorobenzyl) -3-isopropoxy-1H-pyrazol-5-yl]propoxy}-1H-pyrazol-5-yl)propanoic acid] had a melting point of 123 to 126 °C.

Turning to `COCCOc1ccc(CCCOc2cc(CCC(=O)O)n(C)n2)c(Oc2ncc(C(F)(F)F)cc2Cl)c1` [Example 148, 3-(3-{3-[2-{[3-chloro-5-(trifluoromethyl)pyridin-2-yl]oxy}-4-(2-methoxyethoxy)phenyl]propoxy}-1-methyl-1H-pyrazol-5-yl)propanoic acid], the melting point is 114 to 115 °C.

As for `CC(C)Oc1ccc(CCCCOc2cc(CCC(=O)O)n(C(C)C)n2)c(Oc2ncc(C(F)(F)F)cc2Cl)c1` [Example 159, 3-{3-[4-(2-{[3-chloro-5-(trifluoromethyl)pyridin-2-yl]oxy}-4-isopropoxyphenyl)butoxy]-1-isopropyl-1H-pyrazol-5-yl}propanoic acid], the melting point was 99.5 to 100.5 °C.

`COc1cccc(CC(=O)O)c1OCc1cc(OC(C)C)nn1Cc1ccc(Cl)cc1Cl` [Example 50, (2-{[1-(2,4-dichlorobenzyl)-3-isopropoxy-1H-pyrazol-5-yl]methoxy}-3-methoxyphenyl)acetic acid] showed a melting point of 127 to 128 °C.

With `CCCOc1cc(CCCOc2c(CC(=O)O)cccc2OC)n(Cc2ccc(Cl)cc2)n1` [Example 81, (2-{3-[1-(4-chlorobenzyl)-3-propoxy-1H-pyrazol-5-yl]propoxy}-3-methoxyphenyl)acetic acid], the melting point lay in the range of 131 to 132 °C.

As to `CC(C)Oc1cc(CCCOc2nn(C)cc2CC(=O)O)n(Cc2ccc(Cl)cc2Cl)n1` [Example 32, (3-{3-[1-(2,4-dichlorobenzyl)-3-isopropoxy-1H-pyrazol-5-yl]propoxy}-1-methyl-1H-pyrazol-4-yl)acetic acid], the melting point fell in the range of 96 to 97 °C.

On to `CC(C)Oc1cc(COc2cc(CCC(=O)O)n(C)n2)cc(COc2ccc(Cl)cc2Cl)c1` [Example 194, 3-[3-({3-[(2,4-dichlorophenoxy)methyl]-5-isopropoxybenzyl}oxy)-1-methyl-1H-pyrazol-5-yl]propanoic acid], for which the melting point was 105 to 106 °C.

As for `CCn1nc(OCCCc2ccc(OC(C)C)cc2OCc2ccc(C(F)(F)F)cc2)cc1CCC(=O)O` [Example 168, 3-{1-ethyl-3-[3-(4-isopropoxy-2-{[4-(trifluoromethyl)benzyl]oxy}phenyl)propoxy]-1H-pyrazol-5-yl}propanoic acid], the melting point fell in the range of 75 to 76 °C.

For the molecule `CC(C)Cn1nc(OCCCc2ccc(OC(C)C)cc2OCc2ccc(Cl)cc2Cl)cc1CCC(=O)O` [Example 162, 3-[3-(3-{2-[(2,4-dichlorobenzyl)oxy]-4-isopropoxyphenyl}propoxy) -1-isobutyl-1H-pyrazol-5-yl]propanoic acid], the melting point fell in the range of 133 to 134 °C.

With `CCOc1cccc(CC(=O)O)c1OCCCc1cc(OC(C)C)nn1Cc1ccc(Cl)cc1Cl` [Example 23, (2-{3-[1-(2,4-dichlorobenzyl)-3-isopropoxy-1H-pyrazol-5-yl]propoxy}-3-ethoxyphenyl)acetic acid], the melting point is 132 to 133 °C.

`COc1cccc(CC(=O)O)c1OCc1cc(OC(C)C)nn1Cc1ccc2ccccc2n1` [Example 8, (2-{[3-isopropoxy-1-(quinolin-2-ylmethyl)-1H-pyrazol-5-yl]methoxy}-3-methoxyphenyl)acetic acid] returned a melting point of 129 to 130 °C.

Molecule `CC(C)n1nc(COc2ccccc2CC(=O)O)cc1OCc1ccc2ccccc2n1` [Example 55, (2-{[1-isopropyl-5-(quinolin-2-ylmethoxy)-1H-pyrazol-3-yl]methoxy}phenyl)acetic acid] gave a melting point of 116 to 117 °C.

Regarding `CCOc1cc(CCCOc2c(CC(=O)O)cccc2OC)n(Cc2ccc(Cl)cc2Cl)n1` [Example 26, (2-{3-[1-(2,4-dichlorobenzyl)-3-ethoxy-1H-pyrazol-5-yl]propoxy}-3-methoxyphenyl)acetic acid], the melting point lay within 109 to 110 °C.

In turn, `COCCOc1cc(Oc2ccc(C(F)(F)F)cn2)ccc1CCCOc1cc(CCC(=O)O)n(-c2ccccc2)n1` [Example 153, 3-{3-[3-(2-(2-methoxyethoxy)-4-{[5-(trifluoromethyl)pyridin-2-yl]oxy}phenyl)propoxy]-1-phenyl-1H-pyrazol-5-yl}propanoic acid] gave a melting point of 83 to 85 °C.

In the case of `CC(C)Oc1cc(COc2cc(CCC(=O)O)n(-c3ccccc3)n2)cc(COc2ncc(C(F)(F)F)cc2Cl)c1` [Example 203, 3-(3-{[3-({[3-chloro-5-(trifluoromethyl)pyridin-2-yl]oxy}methyl)-5-isopropoxybenzyl]oxy}-1-phenyl-1H-pyrazol-5-yl)propanoic acid], the melting point is 140 to 142 °C.

On to `CCCOc1cc(CCCOc2c(CC(=O)O)cccc2OC)n(Cc2ccc3ccccc3n2)n1` [Example 11, (3-methoxy-2-{3-[3-propoxy-1-(quinolin-2-ylmethyl)-1H-pyrazol-5-yl]propoxy}phenyl)acetic acid], for which the melting point lay in the range of 97 to 98 °C.

`CCc1cccc(CC(=O)O)c1OCCn1cc(C(=O)NCc2ccc(C(F)(F)F)cc2)c(OC(C)C)n1` [Example 184, (3-ethyl-2-{2-[3-isopropoxy-4-({[4-(trifluoromethyl)benzyl]amino}carbonyl)-1H-pyrazol-1-yl]ethoxy}phenyl)acetic acid]: the melting point is 110 to 111 °C.

`CC(C)Cn1nc(OCCCCc2ccc(OC(C)C)cc2Oc2ncc(C(F)(F)F)cc2Cl)cc1CCC(=O)O` [Example 157, 3-{3-[4-(2-{[3-chloro-5-(trifluoromethyl)pyridin-2-yl]oxy}-4-isopropoxyphenyl)butoxy]-1-isobutyl-1H-pyrazol-5-yl}propanoic acid] registered a melting point of 122 to 123 °C.

Regarding `CC(C)Oc1cc(COc2cc(CCC(=O)O)n(-c3ccccc3)n2)cc(COc2ccc(Cl)cc2Cl)c1` [Example 195, 3-[3-({3-[(2,4-dichlorophenoxy)methyl]-5-isopropoxybenzyl}oxy)-1-phenyl-1H-pyrazol-5-yl]propanoic acid], the melting point was in the range of 108 to 110 °C.

On to `CCOc1cc(COc2cc(CCC(=O)O)n(-c3ccccc3)n2)cc(COc2ccc(Cl)cc2Cl)c1` [Example 204, 3-[3-({3-[(2,4-dichlorophenoxy)methyl]-5-ethoxybenzyl}oxy)-1-phenyl-1H-pyrazol-5-yl]propanoic acid], for which the melting point lay within 151.5 to 152 °C.

For `CC(C)c1nc(CCCOc2ncccc2CC(=O)O)c(Cc2ccc(Cl)cc2Cl)s1` [Example 53, (2-{3-[5-(2,4-dichlorobenzyl)-2-isopropyl-1,3-thiazol-4-yl]propoxy}pyridin-3-yl)acetic acid], the melting point is 106 to 107 °C.

`COCCOc1ccc(CCCOc2cc(CCC(=O)O)n(C)n2)c(OCc2ccc(Cl)cc2Cl)c1` [Example 164, 3-(3-{3-[2-[(2,4-dichlorobenzyl)oxy]-4-(2-methoxyethoxy)phenyl]propoxy}-1-methyl-1H-pyrazol-5-yl)propanoic acid]: the melting point is 128.5 to 129.5 °C.

`CCOc1cc(Cc2ccccn2)ccc1CCCOc1c(CC(=O)O)cccc1OC` [Example 125, (2-{3-[2-ethoxy-4-(pyridin-2-ylmethyl)phenyl]propoxy}-3-methoxyphenyl)acetic acid] registered a melting point of 97.5 to 98.5 °C.

`CCCOc1cc(CCCOc2nn(Cc3ccccc3)cc2CC(=O)O)n(Cc2ccc(Cl)cc2Cl)n1` [Example 89, (1-benzyl-3-{3-[1-(2,4-dichlorobenzyl)-3-propoxy-1H-pyrazol-5-yl]propoxy}-1H-pyrazol-4-yl)acetic acid] had a melting point of 132 to 134 °C.

As to `COc1cccc(CC(=O)O)c1OCCCc1cc(OC(C)C)nn1Cc1ccc2ccccc2n1` [Example 10, (2-{3-[3-isopropoxy-1-(quinolin-2-ylmethyl)-1H-pyrazol-5-yl]propoxy}-3-methoxyphenyl)acetic acid], the melting point fell in the range of 129 to 130 °C.

As for `CCOc1nn(Cc2ccc(Cl)cc2Cl)cc1CCCOc1cc(CCC(=O)O)n(Cc2ccccc2)n1` [Example 182, 3-(1-benzyl-3-{3-[1-(2,4-dichlorobenzyl)-3-ethoxy-1H-pyrazol-4-yl]propoxy}-1H-pyrazol-5-yl)propanoic acid], the melting point is 84 to 85 °C.

Turning to `COCCOc1ccc(CCCOc2cc(CCC(=O)O)n(C)n2)c(OCc2ccc(C(F)(F)F)cc2)c1` [Example 169, 3-{3-[3-(4-(2-methoxyethoxy)-2-{[4-(trifluoromethyl)benzyl]oxy}phenyl)propoxy]-1-methyl-1H-pyrazol-5-yl}propanoic acid], the melting point lay in the range of 110 to 111 °C.

As for `CCOc1ccc(CCCOc2nn(C)cc2CC(=O)O)c(Oc2ccc(Cl)cc2Cl)n1` [Example 135, (3-{3-[2-(2,4-dichlorophenoxy)-6-ethoxypyridin-3-yl]propoxy}-1-methyl-1H-pyrazol-4-yl)acetic acid], the melting point lay within 81 to 83 °C.

`CC(C)Oc1ccc(CCCCOc2cc(CCC(=O)O)n(C)n2)c(Oc2ncc(C(F)(F)F)cc2Cl)c1` [Example 155, 3-{3-[4-(2-{[3-chloro-5-(trifluoromethyl)pyridin-2-yl]oxy}-4-isopropoxyphenyl)butoxy]-1-methyl-1H-pyrazol-5-yl}propanoic acid] yielded a melting point of 156 to 157 °C.

In turn, `CC(C)Oc1ccc(CCCOc2cc(CCC(=O)O)n(C)n2)c(OCc2ccc(C(F)(F)F)cc2)c1` [Example 167, 3-{3-[3-(4-isopropoxy-2-{[4-(trifluoromethyl)benzyl]oxy}phenyl)propoxy]-1-methyl-1H-pyrazol-5-yl}propanoic acid] had a melting point of 88 to 89 °C.

For `CC(C)Oc1cc(CCCOc2cc(CCC(=O)O)n(-c3ccccc3)n2)n(Cc2ccc(Cl)cc2Cl)n1` [Example 192, 3-(3-{3-[1-(2,4-dichlorobenzyl)-3-isopropoxy-1H-pyrazol-5-yl]propoxy}-1-phenyl-1H-pyrazol-5-yl)propanoic acid], the melting point lay in the range of 145.5 to 147.5 °C.

As to `O=C(O)CCc1cc(OCc2cc(COc3ccc(Cl)cc3Cl)cc(OCc3ccccc3)c2)nn1-c1ccccc1` [Example 198, 3-[3-({3-(benzyloxy)-5-[(2,4-dichlorophenoxy)methyl]benzyl}oxy)-1-phenyl-1H-pyrazol-5-yl]propanoic acid], the melting point fell in the range of 126 to 130 °C.
